Measurements published in patent US20260265341A1, “EPISYNCHRONS FOR PRECISION MEDICINE” (priority 2022, published 2026).
Marks after values point to notes of the source that are not given here. Primed or numbered codes have the meaning given here. Ends that are not written are not given here. * marks the point of attachment. GW4064″ = FXR ligand, CC(C)c1onc(-c2c(Cl)cccc2Cl)c1COc1ccc(/C=C/c2cccc(C(=O)*)c2)c(Cl)c1; RARβ/γ ligand = not defined here; Decanoyl = CCCCCCCCCC(=O)*; bexarotene″ = RXR ligand; GW4064(3) = FXR ligand; GW7647 = PPARα ligand

Experiments:
Type in all cases: cell-based
[1] = tested on: C2C12 myoblast cell line; experiment: C2C12 myoblast differentiation assay (creatine kinase); parameters: CK (units/mg): unit not given here; details: for CK (units/mg): peptide(s) 0.66 uM, no free added ligand, 96 h, relative to imm3SVD (=100)
Experimental: C2C12 myoblast cell line (ATCC, Manassas, VA) was cultured in DMEM medium supplemented with 10% FBS and 1% penicillin/streptomycin. For differentiation, cells were cultured in the same medium, except that 10% FBS was replaced by 2% horse serum. Peptides and NR ligands were added at the indicated concentrations and cells were harvested 96 hours later for assay. Cell extracts were assayed for creatine kinase (CK) per mg protein. CK was measured using the ECPK-100 kit from BioAssay Systems (Hayward, CA). Protein was assayed using the BCA protein assay kit from Thermofisher Scientific (Waltham, MA).

[2] = tested on: HFF-1 cell line; experiment: Collagen stimulating activity (COL1A1 ELISA of supernatants); details: peptide 2 uM, 72 hour, supernatant anti-COL1A1 ELISA
Experimental: Immodulin peptides have potential untility in the field of cosmetics. HFF-1 cell line from American Type Culture Collection (ATCC) was grown in DMEM Medium containing 10% fetal bovine serum and penicillin-streptomycin at 37° C. in a humidified, 5% CO2 incubator. 2,000 cells/well were plated in a 96-well plate and incubated overnight. 10 ul/well of peptides (2 uM final concentration) were added in quadruplicate wells. After 72 hour incubation with the compound, supernatants were collected and immunoreactivity was measured by ELISA using monoclonal anti-COL1A1 antibody (Abcam, Cambridge, MA). * p<0.05, ** p<0.01 vs no peptide.

[3] = tested on: HuT78; experiment: Cancer cell viability (CellTiterGlo), HuT78; details: RXR modulators each at 0.5 uM with peptide imm3A1 0.66 uM, 72 hour; untreated=100
Experimental: (§1) A375, A549 and HuT78 cancer cell lines was obtained from American Type Culture Collection (ATCC). They were grown in a T-75 flask in DMEM (or IMDM, for HuT78) medium containing 10% fetal bovine serum and penicillin-streptomycin at 37° C. in a humidified, 5% CO2 incubator. Cells (100 µl, 2,000 cells/well; 5,000 cells/well for HuT78) were plated in a 96-well plate and incubated overnight at 37° C. in a humidified, 5% CO2 incubator. Next day, 10 ul/well of compounds were added (quadruplicate wells). After 72 hour incubation with the compound, cell viability was measured in a luminometer by addition of 100 µL/well CellTiterGlo reagent (Promega Inc, Madison, WI) and reading chemiluminescence after 10 mins, as recommended by the manufacturer. Peptide imm3A1 ([…]-[…]) was added at 0.66 uM and RXR modulators, each at 0.5 uM. The results of this experiment are shown below, expressed as percent survival of cells (untreated=100).

[4] = tested on: A375; experiment: Cancer cell viability (CellTiterGlo), A375; details: RXR modulators each at 0.5 uM with peptide imm3A1 0.66 uM, 72 hour; untreated=100
Experimental: as §1

[5] = tested on: A549; experiment: Cancer cell viability (CellTiterGlo), A549; details: RXR modulators each at 0.5 uM with peptide imm3A1 0.66 uM, 72 hour; untreated=100
Experimental: as §1

For “imm3bex: SDKKGFYKKKQCRPSKGRKRGFCWSVDK with C-lig bexarotene (RXR ligand) (SDKKGFYKKKQCRPSKGRKRGFCWSVDK-{bexarotene″}; cysteine pairing not given here)”, the “CK (units/mg)” value [1] was 121.0 ± 6.6.
In the case of “imm3fxr-bex: fxr-SDKKGFYKKKQCRPSKGRKRGFCWSVDK-[bex]: GW4064 at N-terminus, bexarotene at C-terminus; multisynchron ({GW4064″}-SDKKGFYKKKQCRPSKGRKRGFCWSVDK-{bexarotene″}; cysteine pairing not given here)”, the “performance in cell culture assays” value ([1]; single peptide compared with combination of imm3fxr and imm3bex) is reported as “performs as predicted from the performance of the combination of imm3fxr and imm3bex episynchrons”.
Work on IM3: peptide KKGFYKKKQCRPSKGRKRGFCW yielded a COL1 [2] of 0.28 ± 0.23 ng/mL.
For “imm3ppa: SDKKGFYKKKQCRPSKGRKRGFCWSVDK with C-lig GW7647 (PPARα ligand) on C-terminal lysine (SDKKGFYKKKQCRPSKGRKRGFCWSVDK(GW7647); cysteine pairing not given here)”, the “CK (units/mg)” value [1] was 155.9 ± 18.8.
For “imm3decK9adp: multisynchron SAFNSYELGSDKKGFYKKKQCRPSKGRKRGFCWS, N-lig PPARγ, C-lig RARβ/γ (Decanoyl-SAFNSYELGSDKKGFYKKKQCRPSKGRKRGFCWS-{RARβ/γ ligand}; cysteine pairing not given here; reading uncertain)”, the COL1 ng/ml [2] was 5.27 ± 0.36** ng/ml.
“IM3dec: (decanoic)-KKGFYKKKQCRPSKGRKRGFCW, N-lig PPARγ (Decanoyl-KKGFYKKKQCRPSKGRKRGFCW; cysteine pairing not given here)” was tested, and the COL1 ng/ml [2] was 0.41 ± 0.11* ng/ml.
In the case of “imm3fxr: SDKKGFYKKKQCRPSKGRKRGFCWSVDK with C-lig GW4064 (FXR ligand) (SDKKGFYKKKQCRPSKGRKRGFCWSVDK-{GW4064(3)}; cysteine pairing not given here)”, the “CK (units/mg)” value [1] is reported as 136.8 ± 19.6.
For `CN1c2ccc([N+](=O)[O-])cc2N=C(c2ccc(C(=O)O)cc2)c2cc3c(cc21)C(C)(C)CCC3(C)C` [HX531], the “percent survival of cells, HuT78” value [3] was 88.1 ± 0.8%, the “percent survival of cells, A375” value [4] was 89.9 ± 1.6 a percent and the “percent survival of cells, A549” value [5] was 89.2 ± 4.1 b percent.
For `CN1c2ccccc2N=C(c2ccc(C(=O)O)cc2)c2cc3c(cc21)C(C)(C)CCC3(C)C` [HX600], the “percent survival of cells, HuT78” value [3] was 48.7 ± 2.8 a percent, the “percent survival of cells, A375” value [4] was 57.1 ± 0.6 a percent and the “percent survival of cells, A549” value [5] was 60.0 ± 0.6 a percent.
With “IM3K9: peptide AFNSYELGSKGFYKKKQCRPSKGRKRGFCW” the COL1 ng/ml [2] was 0.57 ± 0.13** ng/ml.
